# Measurements published in PMC11345841, “Exploring 2-Sulfonylpyrimidine Warheads as Acrylamide Surrogates for Targeted Covalent Inhibition: A BTK Story” (Journal of Medicinal Chemistry, 2024).
# Read-outs that look alike come from different tables or passages of the source.
# How the values were obtained:
# BTK = target: T1, BTK (Homo sapiens, UniProt Q06187); test: KINOMEscan ScanTK; assay type: binding; conditions: for remaining binding at 1 µM: BTK; for inhibition at 1 µM: ScanTK
# T1 construct: purchased Eurofins DiscoverX KINOMEscan (scanTK)
# T1 sequence (Q06187 whole entry): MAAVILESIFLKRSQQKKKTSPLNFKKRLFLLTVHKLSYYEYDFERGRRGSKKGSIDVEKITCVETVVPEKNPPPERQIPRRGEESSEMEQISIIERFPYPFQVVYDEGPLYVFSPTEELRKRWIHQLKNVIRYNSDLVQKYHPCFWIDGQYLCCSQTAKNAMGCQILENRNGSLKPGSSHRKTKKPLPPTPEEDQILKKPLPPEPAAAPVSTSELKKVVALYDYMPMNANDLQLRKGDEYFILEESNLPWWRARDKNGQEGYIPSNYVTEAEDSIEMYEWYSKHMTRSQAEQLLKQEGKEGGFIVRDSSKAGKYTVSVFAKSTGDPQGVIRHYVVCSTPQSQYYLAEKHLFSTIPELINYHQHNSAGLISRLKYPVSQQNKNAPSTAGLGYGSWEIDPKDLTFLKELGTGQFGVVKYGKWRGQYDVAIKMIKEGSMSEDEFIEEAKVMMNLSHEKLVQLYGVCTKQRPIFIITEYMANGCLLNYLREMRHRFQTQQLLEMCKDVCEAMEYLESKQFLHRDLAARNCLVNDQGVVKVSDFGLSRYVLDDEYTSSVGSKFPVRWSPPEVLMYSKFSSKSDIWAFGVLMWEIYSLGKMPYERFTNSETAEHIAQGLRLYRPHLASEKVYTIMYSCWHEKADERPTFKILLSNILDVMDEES
# CSK = target: T2, CSK (Homo sapiens, UniProt P41240); test: KINOMEscan ScanTK; assay type: binding
# T2 construct: purchased Eurofins DiscoverX KINOMEscan (scanTK)
# EGFR(G719C) = target: T3, EGFR(G719C) (Homo sapiens, UniProt P00533, G719C); test: KINOMEscan ScanTK; assay type: binding
# T3 construct: purchased Eurofins DiscoverX KINOMEscan (scanTK)
# EGFR(L858R,T790M) = target: T4, EGFR(L858R,T790M) (Homo sapiens, UniProt P00533, L858R/T790M); test: KINOMEscan ScanTK; assay type: binding
# T4 construct: purchased Eurofins DiscoverX KINOMEscan (scanTK)
# T4 sequence (P00533 25-1210 T790M/L858R): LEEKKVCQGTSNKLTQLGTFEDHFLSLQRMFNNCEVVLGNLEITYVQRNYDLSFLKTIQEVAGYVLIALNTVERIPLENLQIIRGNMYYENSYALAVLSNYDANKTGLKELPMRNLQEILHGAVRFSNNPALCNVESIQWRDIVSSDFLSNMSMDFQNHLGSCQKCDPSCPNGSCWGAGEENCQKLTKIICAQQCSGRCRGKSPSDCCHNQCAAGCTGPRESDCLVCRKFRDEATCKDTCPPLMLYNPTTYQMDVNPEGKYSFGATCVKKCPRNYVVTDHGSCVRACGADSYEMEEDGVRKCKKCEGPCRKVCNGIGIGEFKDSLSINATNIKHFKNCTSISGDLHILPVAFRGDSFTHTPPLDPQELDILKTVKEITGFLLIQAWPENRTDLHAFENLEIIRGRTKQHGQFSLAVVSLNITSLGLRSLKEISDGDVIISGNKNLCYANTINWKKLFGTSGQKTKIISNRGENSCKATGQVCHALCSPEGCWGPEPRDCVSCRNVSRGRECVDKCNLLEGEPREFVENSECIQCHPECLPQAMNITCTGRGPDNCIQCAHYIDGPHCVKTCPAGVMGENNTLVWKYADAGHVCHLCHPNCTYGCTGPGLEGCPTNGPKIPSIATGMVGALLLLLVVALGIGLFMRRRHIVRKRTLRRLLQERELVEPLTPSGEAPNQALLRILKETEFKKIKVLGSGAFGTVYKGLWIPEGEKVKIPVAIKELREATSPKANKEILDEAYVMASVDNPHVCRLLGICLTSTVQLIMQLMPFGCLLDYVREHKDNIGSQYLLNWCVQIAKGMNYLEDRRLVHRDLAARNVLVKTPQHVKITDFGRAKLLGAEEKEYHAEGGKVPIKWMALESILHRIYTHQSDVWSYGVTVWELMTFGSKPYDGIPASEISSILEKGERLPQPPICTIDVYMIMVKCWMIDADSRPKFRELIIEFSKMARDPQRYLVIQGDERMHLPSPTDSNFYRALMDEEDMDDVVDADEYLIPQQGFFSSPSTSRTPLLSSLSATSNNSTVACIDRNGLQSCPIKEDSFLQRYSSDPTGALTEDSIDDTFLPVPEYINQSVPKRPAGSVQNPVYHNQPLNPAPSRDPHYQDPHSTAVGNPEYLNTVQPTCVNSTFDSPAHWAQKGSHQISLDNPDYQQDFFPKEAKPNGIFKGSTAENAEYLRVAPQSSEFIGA
# EPHB4 = target: T5, EPHB4 (Homo sapiens, UniProt P54760); test: KINOMEscan ScanTK; assay type: binding
# T5 construct: purchased Eurofins DiscoverX KINOMEscan (scanTK)
# T5 sequence (P54760 16-987): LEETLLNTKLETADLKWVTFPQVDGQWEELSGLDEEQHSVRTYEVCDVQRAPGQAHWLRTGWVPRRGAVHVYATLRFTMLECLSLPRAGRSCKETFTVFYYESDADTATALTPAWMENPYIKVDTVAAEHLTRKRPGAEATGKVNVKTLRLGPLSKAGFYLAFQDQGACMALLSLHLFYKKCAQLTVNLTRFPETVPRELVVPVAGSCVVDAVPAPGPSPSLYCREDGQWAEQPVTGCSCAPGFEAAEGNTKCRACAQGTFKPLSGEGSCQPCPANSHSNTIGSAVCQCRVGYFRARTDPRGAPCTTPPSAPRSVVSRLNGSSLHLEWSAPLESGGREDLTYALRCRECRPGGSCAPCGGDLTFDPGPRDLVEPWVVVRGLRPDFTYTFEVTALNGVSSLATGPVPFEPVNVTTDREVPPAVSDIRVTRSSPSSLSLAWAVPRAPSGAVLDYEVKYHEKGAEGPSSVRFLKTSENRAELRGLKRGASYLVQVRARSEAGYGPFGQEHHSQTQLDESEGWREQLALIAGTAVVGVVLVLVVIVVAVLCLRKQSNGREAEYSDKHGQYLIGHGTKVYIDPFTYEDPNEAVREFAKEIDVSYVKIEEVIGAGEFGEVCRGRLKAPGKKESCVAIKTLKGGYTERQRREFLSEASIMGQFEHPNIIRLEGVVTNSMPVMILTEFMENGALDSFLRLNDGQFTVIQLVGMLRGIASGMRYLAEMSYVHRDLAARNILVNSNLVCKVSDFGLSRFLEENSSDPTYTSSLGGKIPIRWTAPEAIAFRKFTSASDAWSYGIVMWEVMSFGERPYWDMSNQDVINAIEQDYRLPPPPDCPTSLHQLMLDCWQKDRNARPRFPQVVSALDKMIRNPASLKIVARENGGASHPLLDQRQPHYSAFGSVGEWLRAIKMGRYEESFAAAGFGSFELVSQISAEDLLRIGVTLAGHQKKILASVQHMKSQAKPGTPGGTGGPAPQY
# [1] = target: T6, JAK1(JH1domain-catalytic) (Homo sapiens, UniProt P23458); test: KINOMEscan ScanTK; assay type: binding
# T6 construct: JAK1(JH1domain-catalytic); purchased Eurofins DiscoverX KINOMEscan (scanTK)
# T6 sequence (P23458 875-1154 limits assumed): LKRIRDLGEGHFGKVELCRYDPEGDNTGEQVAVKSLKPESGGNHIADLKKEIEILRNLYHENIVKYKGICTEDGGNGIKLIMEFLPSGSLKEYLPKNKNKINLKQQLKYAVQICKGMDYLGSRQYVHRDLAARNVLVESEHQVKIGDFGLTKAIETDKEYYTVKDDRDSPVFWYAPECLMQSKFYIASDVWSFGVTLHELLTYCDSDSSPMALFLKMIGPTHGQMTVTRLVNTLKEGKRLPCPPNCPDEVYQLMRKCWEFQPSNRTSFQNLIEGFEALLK
# KIT(V559D) = target: T7, KIT(V559D) (Homo sapiens, UniProt P10721, V559D); test: KINOMEscan ScanTK; assay type: binding
# T7 construct: purchased Eurofins DiscoverX KINOMEscan (scanTK)
# T7 sequence (P10721 26-976 V559D): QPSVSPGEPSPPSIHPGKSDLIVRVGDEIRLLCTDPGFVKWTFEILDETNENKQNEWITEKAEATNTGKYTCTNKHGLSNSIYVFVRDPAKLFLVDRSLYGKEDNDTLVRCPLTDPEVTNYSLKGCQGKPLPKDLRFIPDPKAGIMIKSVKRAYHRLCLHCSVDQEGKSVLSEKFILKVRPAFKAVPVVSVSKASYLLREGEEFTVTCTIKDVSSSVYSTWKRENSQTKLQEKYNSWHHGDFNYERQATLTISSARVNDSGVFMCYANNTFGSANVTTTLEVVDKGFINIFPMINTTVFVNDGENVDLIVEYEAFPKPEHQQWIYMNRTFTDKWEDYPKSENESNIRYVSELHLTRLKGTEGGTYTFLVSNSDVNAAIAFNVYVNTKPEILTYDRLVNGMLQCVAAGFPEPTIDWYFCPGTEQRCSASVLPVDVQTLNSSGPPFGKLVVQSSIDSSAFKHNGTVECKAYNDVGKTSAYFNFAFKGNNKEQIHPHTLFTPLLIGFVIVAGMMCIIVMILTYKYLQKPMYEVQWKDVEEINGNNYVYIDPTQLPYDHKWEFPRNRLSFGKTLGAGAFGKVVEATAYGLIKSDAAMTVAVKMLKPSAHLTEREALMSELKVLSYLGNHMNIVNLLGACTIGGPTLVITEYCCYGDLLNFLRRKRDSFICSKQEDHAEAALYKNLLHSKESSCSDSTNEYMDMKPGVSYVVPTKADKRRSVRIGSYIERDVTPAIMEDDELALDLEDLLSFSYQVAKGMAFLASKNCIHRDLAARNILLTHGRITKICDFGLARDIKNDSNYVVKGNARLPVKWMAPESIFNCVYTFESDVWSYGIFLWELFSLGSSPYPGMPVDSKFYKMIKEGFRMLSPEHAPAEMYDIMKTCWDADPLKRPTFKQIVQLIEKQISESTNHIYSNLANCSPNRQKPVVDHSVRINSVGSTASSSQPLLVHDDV
# TIE2 = target: T8, TIE2 (Homo sapiens, UniProt Q02763); test: KINOMEscan ScanTK; assay type: binding
# T8 construct: purchased Eurofins DiscoverX KINOMEscan (scanTK)
# T8 sequence (Q02763 23-1124): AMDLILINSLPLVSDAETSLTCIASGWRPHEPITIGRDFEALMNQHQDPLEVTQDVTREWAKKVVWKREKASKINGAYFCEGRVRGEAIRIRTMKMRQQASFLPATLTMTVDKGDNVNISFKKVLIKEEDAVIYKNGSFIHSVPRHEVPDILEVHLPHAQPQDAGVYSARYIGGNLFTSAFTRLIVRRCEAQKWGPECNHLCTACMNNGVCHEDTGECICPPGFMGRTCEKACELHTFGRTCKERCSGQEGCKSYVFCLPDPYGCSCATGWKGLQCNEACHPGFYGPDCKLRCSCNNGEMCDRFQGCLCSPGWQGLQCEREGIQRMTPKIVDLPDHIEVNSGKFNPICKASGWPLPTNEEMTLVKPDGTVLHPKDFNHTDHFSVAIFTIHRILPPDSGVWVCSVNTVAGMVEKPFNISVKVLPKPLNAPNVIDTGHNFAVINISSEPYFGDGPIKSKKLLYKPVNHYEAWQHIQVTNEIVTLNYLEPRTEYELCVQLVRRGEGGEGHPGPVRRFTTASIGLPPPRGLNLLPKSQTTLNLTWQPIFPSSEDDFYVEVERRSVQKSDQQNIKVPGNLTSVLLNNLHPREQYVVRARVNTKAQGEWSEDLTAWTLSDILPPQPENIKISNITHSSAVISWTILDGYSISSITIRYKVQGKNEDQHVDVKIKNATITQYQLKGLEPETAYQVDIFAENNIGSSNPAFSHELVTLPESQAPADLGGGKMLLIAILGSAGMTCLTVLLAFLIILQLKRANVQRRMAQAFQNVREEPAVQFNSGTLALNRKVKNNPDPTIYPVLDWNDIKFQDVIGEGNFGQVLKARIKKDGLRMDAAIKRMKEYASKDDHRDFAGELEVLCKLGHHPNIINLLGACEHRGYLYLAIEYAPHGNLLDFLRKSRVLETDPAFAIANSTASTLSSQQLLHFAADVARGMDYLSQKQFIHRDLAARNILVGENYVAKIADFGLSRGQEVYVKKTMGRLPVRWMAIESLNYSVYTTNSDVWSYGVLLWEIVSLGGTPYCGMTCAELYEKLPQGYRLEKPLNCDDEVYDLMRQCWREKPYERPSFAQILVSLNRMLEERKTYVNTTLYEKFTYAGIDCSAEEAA
# ZAP70 = target: T9, ZAP70 (Homo sapiens, UniProt P43403); test: KINOMEscan ScanTK; assay type: binding
# T9 construct: purchased Eurofins DiscoverX KINOMEscan (scanTK)
# T9 sequence (P43403 1-619): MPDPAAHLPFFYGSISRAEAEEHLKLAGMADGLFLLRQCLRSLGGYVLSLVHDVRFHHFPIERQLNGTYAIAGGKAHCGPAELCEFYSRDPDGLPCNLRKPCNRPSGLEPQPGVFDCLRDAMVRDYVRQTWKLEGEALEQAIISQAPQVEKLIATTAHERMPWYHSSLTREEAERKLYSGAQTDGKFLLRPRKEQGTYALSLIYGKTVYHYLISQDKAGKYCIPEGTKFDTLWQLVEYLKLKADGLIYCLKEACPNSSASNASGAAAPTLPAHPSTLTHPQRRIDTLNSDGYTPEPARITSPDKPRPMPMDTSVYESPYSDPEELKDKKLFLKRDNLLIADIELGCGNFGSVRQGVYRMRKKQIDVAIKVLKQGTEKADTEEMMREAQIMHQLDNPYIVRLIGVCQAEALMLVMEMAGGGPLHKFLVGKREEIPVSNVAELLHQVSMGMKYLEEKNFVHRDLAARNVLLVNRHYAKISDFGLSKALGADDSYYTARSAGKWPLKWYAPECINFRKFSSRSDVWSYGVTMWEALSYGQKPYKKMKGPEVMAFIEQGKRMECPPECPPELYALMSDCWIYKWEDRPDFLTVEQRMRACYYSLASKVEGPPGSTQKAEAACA
# BTK, full length (2–659) = BTK, full length (2–659) (Homo sapiens, UniProt Q06187); test: Kinact/Ki determination, PhosphoSens progress curve analysis; assay type: biochemical; conditions: BTK
# BTK, full length (2–659), sequence (Q06187 2-659): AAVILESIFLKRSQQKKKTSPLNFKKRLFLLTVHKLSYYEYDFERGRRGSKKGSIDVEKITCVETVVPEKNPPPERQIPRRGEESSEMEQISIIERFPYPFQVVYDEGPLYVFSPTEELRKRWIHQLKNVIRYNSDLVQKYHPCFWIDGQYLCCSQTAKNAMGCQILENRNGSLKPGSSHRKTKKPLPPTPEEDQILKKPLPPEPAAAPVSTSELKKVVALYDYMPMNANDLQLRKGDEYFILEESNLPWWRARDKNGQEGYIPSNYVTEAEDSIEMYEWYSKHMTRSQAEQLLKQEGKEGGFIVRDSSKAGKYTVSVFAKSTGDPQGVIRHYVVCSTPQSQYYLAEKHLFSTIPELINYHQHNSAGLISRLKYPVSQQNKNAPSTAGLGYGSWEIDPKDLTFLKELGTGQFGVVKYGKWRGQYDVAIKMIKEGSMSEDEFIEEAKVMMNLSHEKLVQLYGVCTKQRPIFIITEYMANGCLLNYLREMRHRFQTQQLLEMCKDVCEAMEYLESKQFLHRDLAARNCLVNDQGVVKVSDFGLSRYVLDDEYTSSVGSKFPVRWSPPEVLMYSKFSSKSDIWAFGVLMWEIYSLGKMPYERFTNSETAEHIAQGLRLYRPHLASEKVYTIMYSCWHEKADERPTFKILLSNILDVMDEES
# Protocol: Nonlinear regression was performed using the Solver algorithm in Excel. […] Two-step Kinact/Ki fits were extracted from the progress curve analysis of all compounds against BTK, enabling independent Kinact and Ki determinations.
# OCI-LY7 cells = test: Anti-IgM-induced Ca2+ flux assay; assay type: cell-based, human; conditions: 1 h pretreatment, 1000 nM or lower concentrations
# Protocol: The effects of compounds on Ca^2+ release were then analyzed following treatment of OCI-LY7 cells (derived from a diffuse large B-cell lymphoma (DLBCL)) with anti-IgM to cross-link surface IgM (sIgM). […] For 8a and 8d, we performed similar experiments at lower concentrations.
# Flow cytometry was performed using a FACS Canto II system (BD Biosciences). Data was acquired for 30 s before cells were stimulated with goat antihuman F(ab’)2 anti-IgM and data were acquired for a further 3.5 min. Cells were then treated with ionomycin (1 μM; Merck) and data were acquired for 2 min. Calcium responses were quantified by calculating area under the curve (AUC) in FlowJo (Becton Dickinson) from the point of addition of anti-IgM to the addition of ionomycin.
# [2] = @1000nM, read-out: % difference (compound - Ib %Control)
remaining binding at 1 µM (BTK; [2]),"remaining binding at 1 µM (BTK; @1000nM, read-out: %Control)",remaining binding at 1 µM (BTK; read-out: %Control @1000nM),inhibition at 1 µM (BTK),difference in %Control from reference compound Ib at 1 µM (CSK; @1000nM),"remaining binding at 1 µM (CSK; @1000nM, read-out: %Control)",remaining binding at 1 µM (CSK; read-out: %Control @1000nM),difference in %Control vs compound Ib at 1 µM (EGFR(G719C); @1000nM),"remaining binding at 1 µM (EGFR(G719C); @1000nM, read-out: %Control)",remaining binding at 1 µM (EGFR(G719C); read-out: %Control @1000nM),"difference in % of control versus compound Ib at 1 µM (EGFR(L858R,T790M); @1000nM)","remaining binding at 1 µM (EGFR(L858R,T790M); @1000nM, read-out: %Control)","remaining binding at 1 µM (EGFR(L858R,T790M); read-out: %Control @1000nM)",difference in %Control from compound Ib at 1 µM (EPHB4; @1000nM),"remaining binding at 1 µM (EPHB4; @1000nM, read-out: %Control)",remaining binding at 1 µM (EPHB4; read-out: %Control @1000nM),difference in %Control versus compound Ib at 1 µM ([1]; @1000nM),"remaining binding at 1 µM ([1]; @1000nM, read-out: %Control)",remaining binding at 1 µM ([1]; read-out: %Control @1000nM),"remaining binding at 1 µM (KIT(V559D); @1000nM, read-out: %Control)",Structure (SMILES),other results
18%,18%,18%,82%,25.5%,30%,30%,6.4%,7.5%,7.5%,77%,87%,87%,-14%,86%,86%,6%,100%,100%,70%,"CCOC(=O)c1cnc(S(C)(=O)=O)nc1N1CCC[C@@H](n2nc(-c3ccc(Oc4ccccc4)cc3)c3c(N)ncnc32)C1 [Compound 8c, Ethyl (R)-4-(3-(4-Amino-3-(4-phenoxyphenyl)-1H-pyrazolo[3,4-d]pyrimidin-1-yl)piperidin-1-yl)-2-(methylsulfonyl)pyrimidine-5-carboxylate]","remaining binding at 1 µM (KIT(V559D); read-out: %Control @1000nM): 70%; remaining binding at 1 µM (TIE2; @1000nM, read-out: %Control): 90%; remaining binding at 1 µM (TIE2; read-out: %Control @1000nM): 90%; remaining binding at 1 µM (ZAP70; @1000nM, read-out: %Control): 100%; remaining binding at 1 µM (ZAP70; read-out: %Control @1000nM): 100%"
0.1%,0.1%,0.1%,> 99%,2.1%,6.6%,6.6%,32.9%,34%,34%,81%,91%,91%,0%,100%,100%,0%,94%,94%,37%,"Cc1cnc(S(C)(=O)=O)nc1N1CCCC(n2nc(-c3ccc(Oc4ccccc4)cc3)c3c(N)ncnc32)C1 (stereo not drawn) [Compound 8a, 1-(1-(5-Methyl-2-(methylsulfonyl)pyrimidin-4-yl)piperidin-3-yl)-3-(4-phenoxyphenyl)-1H-pyrazolo[3,4-d]pyrimidin-4-amine]","Ki (BTK, full length (2–659)): 9.08 ± 0.41 nM; kinact (BTK, full length (2–659)): 0.00659 ± 0.00019 s⁻¹; kinact/KI (BTK, full length (2–659); read-out: Kinact/Ki): 726000 M⁻¹ s⁻¹; effect on anti-IgM-induced Ca2+ flux (OCI-LY7 cells): maintained for these compounds at concentrations down to 250 nM; remaining binding at 1 µM (KIT(V559D); read-out: %Control @1000nM): 37%; remaining binding at 1 µM (TIE2; @1000nM, read-out: %Control): 91%; remaining binding at 1 µM (TIE2; read-out: %Control @1000nM): 91%; remaining binding at 1 µM (ZAP70; @1000nM, read-out: %Control): 92%; remaining binding at 1 µM (ZAP70; read-out: %Control @1000nM): 92%"
